Where “and” joins values, the source holds several entries; their conditions need not be identical. Identical values can stand only once.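 The compound was tested at five concentrations on cells cultured in 96-well plates, with a 48-hour exposure period. At the GI50, growth is halved. TGI: concentration producing complete growth inhibition.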
Tests used:
Assay in all cases: NCI anticancer screen, dose series, 48 h
DMS 114 small cell lung = test system: DMS 114 small cell lung
HOP-18 NSCLC = test system: HOP-18 NSCLC
KM20L2 colon = test system: KM20L2 colon
LXFL 529 NSCLC = test system: LXFL 529 NSCLC
RXF-631 renal = test system: RXF-631 renal
SNB-78 CNS = test system: SNB-78 CNS
HS 578T breast = test system: HS 578T breast
MDA-MB-435 = test system: MDA-MB-435
MDA-N = test system: MDA-N

SMILES | TGI (HOP-18 NSCLC) | TGI (KM20L2 colon) | TGI (LXFL 529 NSCLC) | TGI (SNB-78 CNS) | GI50 (HS 578T breast) [µM] | TGI (HS 578T breast) [µM] | GI50 (MDA-MB-435) [µM] | TGI (MDA-MB-435) [µM] | further results
CN1N=CSC12C(=O)N(c1ccccc1)C(=O)N2c1ccccc1 (stereo not given) | 9.62 µM | > 100 µM | > 100 µM | > 100 µM | – | – | – | – | TGI (DMS 114 small cell lung): > 100 µM; TGI (RXF-631 renal): > 100 µM
CCc1c(C#N)c(=O)[nH]c(=O)n1CCN1CCN(C(=O)NCCCCCCNC(=O)N2CCN(CCn3c(CC)c(C#N)c(=O)[nH]c3=O)CC2)CC1 | > 100 µM | > 100 µM | > 100 µM | > 100 µM | – | – | – | – | TGI (DMS 114 small cell lung): > 100 µM; TGI (RXF-631 renal): > 100 µM
Cc1ccc2cnc(N)c(C#Cc3cc(C(=O)Nc4ccc(CN5CCN(C)CC5)c(C(F)(F)F)c4)cnc3C)c2c1 | – | – | – | – | 0.901 | 2.76 | 0.262 | 1.01 | –
O=S(=O)(/N=c1\scc(-c2ccccc2)n1-c1ccccc1)c1ccc(N2N=C3c4ccccc4CC3C2c2ccc(Cl)cc2)cc1 (stereo not given) | – | – | – | – | 33 | > 100 | 24.2 | > 100 | –
Oc1cccc(Nc2nc3ccccc3c3occc23)c1 | – | – | – | – | 13.9 | 31.4 | 3.04 | 14.8 | –
N#CC(N)=Nc1ccccc1 | > 100 µM | > 100 µM | > 100 µM | – | – | – | – | – | TGI (DMS 114 small cell lung): 31.1 µM; TGI (RXF-631 renal): > 100 µM
CC(=O)c1c(C(F)(F)F)n([O-])c2ccccc2[n+]1=O | – | – | – | – | 1.97 | 6.5 | 1.2 | 4.03 | –
C/C(=N/O)c1cccc(Nc2cc(-n3nnc4ccccc43)nc3ccccc23)c1 | – | – | – | – | 14.3 | 45.5 | 13.7 | 37.1 | –
Cc1cc2c(C)nn(Cc3ccccc3)c2c(C(=O)O)c1C | > 100 µM | > 100 µM | > 100 µM | > 100 µM | – | – | – | – | TGI (RXF-631 renal): > 100 µM
O=c1ncccn1[C@@H]1O[C@H](CO)[C@H](O)C1O (stereo not given in full) | > 100 µM | > 100 µM | > 100 µM | > 100 µM | – | – | – | – | TGI (DMS 114 small cell lung): > 100 µM
O=C1OCC2=C1C(c1cccc(F)c1)c1cc3c(cc1N2CCO)OCO3 (stereo not given) | – | – | – | – | 1.42 | > 50 | 0.187 | 1.57 | –
O=C(Oc1cccnc1)c1cccnc1Nc1ccnc(C(F)(F)F)c1 | – | – | – | – | 32.2 | > 100 | – | – | –
c1ccc(C2ONC3=NCCN32)cc1 (stereo not given) | – | – | – | – | – | – | 93.9 | > 100 | –
Cn1c(=O)nc2n(-c3ccc(O)cc3)c3ccccc3nc-2c1=O | > 100 µM | > 100 µM | > 100 µM | > 100 µM | – | – | – | – | TGI (DMS 114 small cell lung): > 100 µM; TGI (RXF-631 renal): > 100 µM
CCSC1=NC2C(N(CC)C(=O)N2CC)N1/N=C/C=C/c1ccccc1[N+](=O)[O-] (stereo not given) | – | – | – | – | 0.118 | > 100 | – | – | –
C=C(c1ccccc1)C1(O)CCCCC1N (stereo not given) | > 100 µM | > 100 µM | > 100 µM | > 100 µM | – | – | – | – | TGI (DMS 114 small cell lung): > 100 µM
COc1cccc(-c2nc3cc(NC(=O)c4ccc(Cl)c(C#N)c4)ccc3o2)c1 | – | – | – | – | 8.89 | > 100 | 1.37 | 2.85 | –
FC(F)(F)c1cccc(-c2nc3nc(Cl)c(Cl)nc3[nH]2)c1 | – | – | – | – | – | 17.8 | – | 13 | TGI (MDA-N): 32 µM
CCOc1ccccc1CCN=C1NC(=O)/C(=C/c2ccc3ncccc3c2)S1 | – | – | – | – | 2.76 | > 7.14 | 0.491 | 1.71 | –

SMILES | TGI (HOP-18 NSCLC) | TGI (KM20L2 colon) | TGI (LXFL 529 NSCLC) | TGI (SNB-78 CNS) | GI50 (HS 578T breast) [µM] | TGI (HS 578T breast) [µM] | GI50 (MDA-MB-435) [µM] | TGI (MDA-MB-435) [µM] | further results
CCc1c2c(nc3ccc(OCc4ccc(B(O)O)cc4)cc13)-c1cc3c(c(=O)n1C2)COC(=O)[C@]3(O)CC | – | – | – | – | 0.752 | > 100 | 0.076 | 3.5 | –
CCN1C(=O)N(CC)C2C1NN=c1s/c(=C\c3ccc(Cl)cc3Cl)c(=O)n12 (stereo not given) | – | – | – | – | 0.0379 | > 50.5 | 0.0206 | 0.0572 | –
CCc1cccc(C)c1NS(=O)(=O)c1ccccc1 | – | > 100 µM | > 100 µM | > 100 µM | – | – | – | – | TGI (DMS 114 small cell lung): > 100 µM; TGI (RXF-631 renal): > 100 µM
COc1cc(Cl)cc(=O)c(O)c1OC | > 100 µM | > 100 µM | > 100 µM | > 100 µM | – | – | – | – | TGI (DMS 114 small cell lung): 67.6 µM
CO/N=C(\COc1ccc2c(c1)[nH]c1ccccc12)c1ccc(OC)cc1 | – | – | – | – | 18.9 | > 100 | 43.3 | > 100 | –
C[N+](C)(C)CCC(=O)CC[N+](C)(C)C | 31.8 µM | 55.4 µM | 30.4 µM | 50.8 µM | – | – | – | – | TGI (DMS 114 small cell lung): 44.2 µM
Cc1ccc(S(=O)(=O)SC/C=C\CSS(=O)(=O)c2ccc(C)cc2)cc1 | > 100 µM and 82.5 µM | > 88.5 µM and 49.1 µM | > 67.8 µM and 33.9 µM | > 100 µM and 89.5 µM | – | > 100 | – | 27.6 | GI50 (HOP-18 NSCLC): > 100 µM and 35.6 µM; GI50 (LXFL 529 NSCLC): 8.61 µM and 17.5 µM; TGI (MDA-N): > 31.6 µM
CNC(=S)Nc1ccc(OC)c2ccccc12 | – | – | – | – | – | > 10 | – | > 10 | TGI (MDA-N): > 10 µM
C=C1CCC2C3(C)COC(C)(C)OC3CCC2(C)C1C/C=C1/C(=O)OCC1OC(C)=O (stereo not given) | – | – | – | – | 2.75 | 9.59 | 2.54 | 11.3 | –
CCOC(=O)Oc1c(OC)cc(C(=O)c2ccc(OC)c(O)c2OC)cc1OC | – | – | – | – | – | – | 0.288 | 1.01 | –
Cc1c(/C=N/NC(=O)c2ccccc2O)c(=O)n(-c2ccccc2)n1C | > 100 µM | > 100 µM | > 100 µM | > 100 µM | – | – | – | – | TGI (DMS 114 small cell lung): > 100 µM
CC(CO)Nc1cc(-c2[nH]c3cccnc3c2-c2ccc(F)cc2)ccn1 (stereo not given) | – | – | – | – | 16.8 | > 25 | > 22.4 | > 25 | –
N#CC(C#N)=C/C=C(\Cl)c1ccc(Cl)cc1 | – | – | – | – | 7.47 | 26.3 | 2.73 | 10 | –
COc1ccc2nccc(C3=CCC4CCN(C(=O)c5ccccc5)C3C4)c2c1 (stereo not given) | – | – | > 100 µM | > 100 µM | – | – | – | – | TGI (DMS 114 small cell lung): > 100 µM
C1CSCCCSCCCSCCCSCCCSCCCSCCCSCCCSC1 | – | – | – | – | – | > 100 | – | > 100 | TGI (MDA-N): > 100 µM
O=C(Nc1cccc(Cl)c1)Nn1cnnc1 | – | – | – | – | > 50 | > 100 | > 50 | > 100 | TGI (MDA-N): > 100 µM
C=CCc1c(Cl)nc(Cl)nc1Cl | – | – | – | – | – | 4.14 | – | 1.4 | TGI (MDA-N): 0.116 µM
Nc1ncnc2c1ncn2C1OC(CSCC(F)(F)F)C(O)C1O (stereo not given) | > 100 µM | > 100 µM | > 100 µM | > 100 µM | – | – | – | – | –

— PubChem BioAssay (NCI)
